Experimental data reported in patent publication EP0656355A1, “BIPHENYLMETHANE DERIVATIVE AND MEDICINE CONTAINING THE SAME” (WAKUNAGA SEIYAKU KABUSHIKI KAISHA, priority 1992, dated 1994).

Each compound was assayed on angiotensin II contraction in longitudinal ileac muscles (assay: Inhibitory activity to angiotensin II contraction in longitudinal ileac muscles excised from a guinea pig). Details: Cavia porcellus, 20 min; 50% contraction inhibition concentration; 10⁻⁸M angiotensin II; test compound reacted for 20 minutes; guinea pig ileum longitudinal muscle; read-out: IC₅₀.
Type: cell-based, Hartley male guinea pig
Procedure: (2) Inhibitory activity to angiotensin II contraction in longitudinal ileac muscles excised from a guinea pig
A Hartley male guinea pig (350-450 g in weight) was sacrificed under exsanguination, followed by the excision of its ileum.
A longitudinal muscle tissue (2 cm long) was prepared from the ileum in a manner known per se in the art. The sample was suspended in a 20-mℓ Magnus cylinder filled with a Tylode solution [composition (mM): NaCℓ 137, KCℓ 2.7, CaCℓ₂ 1.88, MgCℓ₂ 1.1, NaH₂PO₄ 0.4, NaH₂CO₃ 11.8 and glucose 5.6). The Tylode solution was incubated at 37°C and saturated with a mixed gas consisting of 95% O₂ + 5% CO₂. Using an isometric transducer ("TB-611T", manufactured by Nihon Kohden Corporation), variations in contraction were measured. The measurement results were recorded on a computer ("PC-9801", manufactured by NEC Corporation).
Under a load of 0.5 g initial tension, the longitudinal muscle sample was equilibrated in a nutrient solution for about one hour while being washed therewith at intervals of 15 minutes. Then, contracture by the administration of 80 mM of KCℓ was repeated twice. After conforming that the contraction occurred stably, the following test was conducted.
First, 10^-8M angiotensin II was administered to the sample and its maximum contraction was recorded. The test compound was then administered to the sample and they were reacted for 20 minutes. Administered again was 10⁻⁸M angiotensin II and the maximum contraction was measured. […] This test was repeated at increased concentrations of the test compound. A 50% contraction inhibition concentration (IC₅₀) was determined in accordance with a linear regressive calculation of the contraction inhibition rates.
In the case of `CCc1nn(Cc2ccc(-c3ccccc3-c3nnn[nH]3)cc2)c(=NC(=O)C(F)(F)F)s1` [Compound No.50, 2-Trifluoroacetylimino-5-ethyl-3-[2'-(1H-tetrazol-5-yl)biphenyl-4-yl]methyl-1,3,4-thiadiazoline], the IC50 is reported as 4.9 nM. `CCc1nn(Cc2ccc(-c3ccccc3-c3nnn[nH]3)cc2)c(=NC(=O)c2cscc2C(=O)O)s1` [Compound No.143, 4-[[5-Ethyl-3-[2'-(1H-tetrazol-5-yl)biphenyl-4-yl]methyl-1,3,4-thiadiazoline-2-yliden]aminocarbonyl] thiophene-3-carboxylic acid] showed an IC50 of 0.64 nM. With `CCc1nn(Cc2ccc(-c3ccccc3-c3nnn[nH]3)cc2)c(=NS(=O)(=O)c2ccccc2C(=O)OC)s1` [Compound No.151, 2-[[5-Ethyl-3-[2'-(1H-tetrazol-5-yl)biphenyl-4-yl]methyl-1,3,4-thiadiazoline-2-yliden]aminosulfonyl]benzoic acid methyl ester] the IC50 was 0.8 nM. For `CCCc1nn(Cc2ccc(-c3ccccc3-c3nnn[nH]3)cc2)c(=NC(=O)C2=C(C(=O)O)CCC2)s1` [Compound No.131, 2-[[5-n-Propyl-3-[2'-(1H-tetrazol-5-yl)biphenyl-4-yl]methyl-1,3,4-thiadiazoline-2-yliden]aminocarbonyl]-1-cyclopenten carboxylic acid], the IC50 was 0.84 nM. `CCCCC(=O)N(Cc1ccc(-c2ccccc2-c2nn[nH]n2)cc1)c1nnc(C)s1` [Compound No.30, 2-[N-Valeryl-N-(2'-(1H-tetrazol-5-yl)biphenyl-4-yl)methyl]amino-5-methyl-1,3,4-thiadiazole] gave an IC50 of 29 nM. `CCc1nn(Cc2ccc(-c3ccccc3-c3nnn[nH]3)cc2)c(=NC(=O)c2c(F)ccc(F)c2C(=O)O)s1` [Compound No.139, 3,6-Difluoro-N-[5-Ethyl-3-[2'-(1H-tetrazol-5-yl)biphenyl-4-yl]methyl-1,3,4-thiadiazoline-2-yliden] phthalamic acid] was tested, and the IC50 was 7.4 nM. Compound `CCCc1sc(=NC(=O)C2CC2)n(Cc2ccc(-c3ccccc3-c3nnn[nH]3)cc2)c1C(=O)O` [Compound No.244, 2-Cyclopropylcarbonylimino-3-[2'-(1H-tetrazol-5-yl)biphenyl-4-yl]methyl-5-n-propylthiazoline-4-carboxylic acid] has an IC50 of 0.76 nM. With `O=C(O)C1=C(C(=O)N=c2sc(C3CC3)nn2Cc2ccc(-c3ccccc3-c3nn[nH]n3)cc2)CCC1` [Compound No.132, 2-[[5-Cyclopropyl-3-[2'-(1H-tetrazol-5-yl)biphenyl-4-yl]methyl-1,3,4-thiadiazoline-2-yliden]aminocarbonyl]-1-cyclopetenecarboxylic acid] the IC50 was 0.4 nM. In the case of `O=C(N=c1sc(-c2ccccc2)nn1Cc1ccc(-c2ccccc2-c2nnn[nH]2)cc1)C1CC1` [Compound No.27, 2-Cyclopropylcarbonylimino-5-phenyl-3-[2'-(1H-tetrazol-5-yl)biphenyl-4-yl]methyl-1,3,4-thiadiazoline], the IC50 is reported as 10 nM. Compound `CCCCc1sc(=NC(=O)C2CC2)n(Cc2ccc(-c3ccccc3-c3nnn[nH]3)cc2)c1C(=O)O` [Compound No.245, 2-Cyclopropylcarbonylimino-3-[2'-(1H-tetrazol-5-yl)biphenyl-4-yl]methyl-5-n-butylthiazoline-4-carboxylic acid] has an IC50 of 0.35 nM. Compound `O=C(O)c1ccccc1C(=O)N=c1sc(C2CC2)nn1Cc1ccc(-c2ccccc2-c2nnn[nH]2)cc1` [Compound No.137, N-[5-Cyclopropyl-3-[2'-(1H-tetrazol-5-yl)biphenyl-4-yl]methyl-1,3,4-thiadiazoline-2-yliden]phthalamic acid] has an IC50 of 0.9 nM.
